# Measurements taken from patent US8609661B2, “Pyrimido-pyrrolo-quinoxalinedione inhibitors of cystic fibrosis transmembrane conductance regulator protein and uses therefor” (The Regents of the University of California, priority 2009, dated 2013).
# Key:
# human wildtype CFTR [1] = target: T1, human wildtype CFTR (Homo sapiens, UniProt P13569); assay: Short-circuit (apical membrane) chloride current in CFTR-expressing FRT cells, basolateral membrane permeabilized; type: cell-based
# T1 construct: expressed in transfected cells; host or cells: Fischer rat thyroid (FRT) cells
# T1 sequence (P13569 whole entry): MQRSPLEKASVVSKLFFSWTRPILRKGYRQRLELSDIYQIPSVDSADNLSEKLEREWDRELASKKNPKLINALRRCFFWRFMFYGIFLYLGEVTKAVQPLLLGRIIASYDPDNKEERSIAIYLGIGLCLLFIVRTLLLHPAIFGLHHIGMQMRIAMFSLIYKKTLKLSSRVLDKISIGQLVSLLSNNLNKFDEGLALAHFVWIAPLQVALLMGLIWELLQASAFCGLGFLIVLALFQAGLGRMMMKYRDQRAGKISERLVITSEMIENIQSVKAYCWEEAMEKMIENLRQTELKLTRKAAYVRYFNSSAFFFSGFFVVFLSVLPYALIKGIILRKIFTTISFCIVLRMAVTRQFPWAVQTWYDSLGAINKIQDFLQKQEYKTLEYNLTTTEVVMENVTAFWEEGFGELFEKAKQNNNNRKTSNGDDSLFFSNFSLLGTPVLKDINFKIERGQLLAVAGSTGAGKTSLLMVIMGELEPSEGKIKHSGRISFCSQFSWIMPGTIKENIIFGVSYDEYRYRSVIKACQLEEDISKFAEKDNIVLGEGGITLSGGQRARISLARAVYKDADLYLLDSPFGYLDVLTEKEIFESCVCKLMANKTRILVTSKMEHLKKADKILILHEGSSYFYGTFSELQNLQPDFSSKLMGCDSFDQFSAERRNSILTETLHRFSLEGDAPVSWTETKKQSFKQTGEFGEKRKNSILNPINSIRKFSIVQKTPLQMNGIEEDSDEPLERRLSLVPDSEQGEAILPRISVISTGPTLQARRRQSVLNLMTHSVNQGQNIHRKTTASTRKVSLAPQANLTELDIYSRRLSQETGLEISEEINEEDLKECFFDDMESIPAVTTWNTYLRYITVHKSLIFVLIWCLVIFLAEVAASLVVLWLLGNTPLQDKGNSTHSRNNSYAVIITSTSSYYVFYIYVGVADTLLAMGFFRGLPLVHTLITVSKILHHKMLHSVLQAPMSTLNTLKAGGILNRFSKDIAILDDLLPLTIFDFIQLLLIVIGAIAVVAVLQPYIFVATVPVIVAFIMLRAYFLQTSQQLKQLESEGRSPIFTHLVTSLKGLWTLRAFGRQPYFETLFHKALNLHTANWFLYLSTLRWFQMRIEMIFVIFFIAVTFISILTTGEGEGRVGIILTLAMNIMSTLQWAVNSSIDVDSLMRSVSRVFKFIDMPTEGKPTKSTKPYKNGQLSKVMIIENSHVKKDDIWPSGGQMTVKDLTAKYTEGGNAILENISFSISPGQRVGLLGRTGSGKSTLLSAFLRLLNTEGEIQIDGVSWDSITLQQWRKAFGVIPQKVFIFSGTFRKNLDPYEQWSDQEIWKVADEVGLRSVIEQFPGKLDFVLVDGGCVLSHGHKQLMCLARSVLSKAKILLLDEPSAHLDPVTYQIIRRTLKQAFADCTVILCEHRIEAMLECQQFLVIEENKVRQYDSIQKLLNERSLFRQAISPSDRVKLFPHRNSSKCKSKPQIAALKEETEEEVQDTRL
# Protocol: C. Short-Circuit Current Measurements—Snapwell inserts containing CFTR-expressing FRT cells (stably expressing human wildtype CFTR), T84 cells, or human bronchial epithelial cells were mounted in Ussing chambers. For FRT cells the hemichambers were filled with 5 mL of 75 mM NaCl and 75 mM Na gluconate (apical), and 150 mM NaCl (basolateral) (pH 7.3), and the basolateral membrane was permeabilized with 250 μg/mL amphotericin B. For bronchial epithelial cells and T84 cells, both hemichambers contained a Krebs-bicarbonate solution. Hemichambers were continuously bubbled with air (FRT cells) or 5% CO2 in air (bronchial and T84 cells) and maintained at 37° C. Short-circuit current was recorded continuously using a DVC-1000 voltage clamp (World Precision Instruments, Sarasota, Fla.) using Ag/AgCl electrodes and 3 M KCl agar bridges.
# Short circuit current analysis was performed as described in Example 2. […] Measurements were taken in the presence of a transepithelial chloride gradient and following basolateral membrane permeabilization with amphotericin B so that measured current is a direct, quantitative measure of CFTR chloride conductance.
# [2] = tested on: calcium-activated chloride channels; assay: UTP-induced chloride currents in cystic fibrosis (CFTR-deficient) human bronchial epithelial cells; type: cell-based; details: 10 or 20 μM; UTP 100 μM
# Protocol: FIG. 3A: Apical membrane current measured in CFTR-expressing FRT cells in the presence of a transepithelial chloride gradient and with amphotericin B permeabilization of the basolateral membrane. CFTR was activated by CPT-cAMP (chlorophenylthio-cAMP) (100 μM), with increasing concentrations of PPQ-102 added as shown. Left: Original recording. Right: Dose-response (S.E. n=4). FIG. 3B: Measurements as in FIG. 3A, but with apigenin (100 μM) or IBMX (100 μM) as agonists. The data are representative of 3 sets of experiments. FIG. 3C: Short-circuit current measured in T84 (left) and human bronchial airway epithelial cells (right). CFTR was maximally activated by 10 μM forskolin and 100 μM IBMX (‘forsk’). Current in the absence of inhibitor is indicated as ‘control.’ FIG. 3D: Calcium-activated chloride channels were activated by UTP (100 μM) in cystic fibrosis (CFTR-deficient) human bronchial epithelial cells, with PPQ-102 added as indicated. ENaC (epithelial sodium channel) was inhibited by amiloride (10 μM). FIG. 3E: Cellular cAMP assayed in CHO—K1 cells under basal conditions and after addition of 20 μM forskolin (S.E. n=4, differences with PPQ-102, not significant).
# human wildtype CFTR [3] = target: T1, human wildtype CFTR; assay: Single-channel cell-attached patch recordings of CFTR; type: cell-based; details: 1 μM
# Protocol: D. Patch-Clamp Analysis—Whole cell recordings were performed using FRT cells stably expressing human wildtype CFTR. The pipette solution contained 140 mM N-methyl D-glucamine chloride (NMDG-Cl), 5 mM EGTA, 1 mM MgCl2, 1 mM Tris-ATP, and 10 mM HEPES (pH 7.2), and the bath solution contained 140 mM N-methyl D-glucamine chloride, 1 mM CaCl2, 1 mM MgCl2, 10 mM glucose and 10 mM HEPES (pH 7.4). Experiments were performed at room temperature (22-25° C.). Pipettes were pulled from borosilicate glass and had resistances of 3-5 Mohm after fire polishing. […] After establishing the whole-cell configuration, CFTR was activated by adding forskolin and 3-isobutyl-1-methylxanthine (IBMX). Whole cell currents were elicited by applying hyperpolarizing and depolarizing voltage pulses from a holding potential of 0 mV to potentials between −100 mV and +100 mV in steps of 20 mV. Current was filtered at 5 kHz and digitized and analyzed using an AxoScope 10.0 system and a Digidata® 1440A AC/DC converter (Molecular Devices, Sunnyvale, Calif.). The single channel characteristics of CFTR were analyzed in the cell-attached configuration using fire-polished pipettes with a resistance of 10-15 Mohm. The pipette solution contained (in mM): 140 NMDG-Cl, 1 CaCl2, 1 MgCl2, 5 glucose and 10 HEPES (pH 7.4), and the bath solution contained 140 KCl, 1 CaCl2, 1 MgCl2, 5 glucose and 10 HEPES (pH 7.4). Recordings were performed at room temperature using an Axopatch-200B (Axon Instruments, Foster City, Calif.). The voltage and current data were low-pass filtered at 1 kHz and stored for later analysis. Single channel data were digitally filtered at 25 Hz, and analyzed using Clampfit 10.0 software (Axon Instruments).
# Cell-attached patch recordings were performed to examine single-channel CFTR function.
# [4] = tested on: renal cysts in E13.5 embryonic kidneys; assay: Embryonic kidney organ culture model of PKD (8-Br-cAMP-induced cysts); type: cell-based, mouse
# Protocol: E. Embryonic Organ Culture Model of PKD—Mouse embryos were obtained at embryonic day 13.5 (E13.5). Metanephroi were dissected and placed on transparent Falcon […] diameter porous cell culture inserts as described (see, e.g., Sonawane et al., Chem. Biol. 15:718-728 (2008)). To the culture inserts was added DMEM/Ham's F-12 nutrient medium supplemented with 2 mM L-glutamine, 10 mM HEPES, 5 μg/mL insulin, 5 μg/mL transferrin, 2.8 nM selenium, 25 ng/ml prostaglandin E, 32 pg/ml T3, 250 U/ml penicillin and 250 μg/ml streptomycin. Kidneys were maintained in a 37° C. humidified CO2 incubator for up to 8 days. Culture medium containing 100 μM 8-Br-cAMP, with or without CFTR inhibitor, was replaced (in the lower chamber) every 12 h. In some studies CFTR inhibitor was added at 3 days after 8-Br-cAMP to test its efficacy in reversing pre-formed cysts. Kidneys were photographed using a Nikon inverted microscope (Nikon TE 2000-S) equipped with 2× objective lens, 520 nm bandpass filter, and high-resolution CCD camera. Percentage cyst area was calculated as total cyst area divided by total kidney area.
# Kidneys were removed from day 13.5 embryonic mice and maintained in organ culture where they continue to grow. […] Multiple cysts did form and progressively enlarged when the culture medium was supplemented with the CFTR agonist 8-Br-cAMP (see FIG. 5A, left). […] In agreement with the transmission light micrographs of intact kidneys, PPQ-102 reduced cyst size.
# CFTR = CFTR (Homo sapiens, UniProt P13569); assay: Short-circuit current in non-permeabilized T84 and human bronchial epithelial cells; type: cell-based; set-up: endogenous in cells; host or cells: T84 human intestinal epithelial cells; primary human bronchial epithelial cells; details: forskolin and IBMX, read-out: IC50 for CFTR inhibition
# Chain of CFTR (P13569 whole entry): as above
smiles,measurement,setting,value
"Cc1ccc(C2Nc3ccccc3-n3c(-c4ccccc4)c4c(=O)n(C)c(=O)n(C)c4c32)o1 (racemic) [PPQ-102, 7,9-Dimethyl-11-phenyl-6-(5-methylfuran-2-yl)-5,6-dihydro-pyrimido[4′,5′-3,4]pyrrolo[1,2-a]quinoxaline-8,10-(7H,9H)-dione]",reversibility of inhibition,"human wildtype CFTR [1]; 30 min incubation with 2 μM, then 10 min washout",complete restoration of CFTR chloride current
same,IC50,"human wildtype CFTR [1]; CFTR stimulated by CPT-cAMP, transepithelial chloride gradient, amphotericin B, read-out: IC50 for inhibition of CFTR chloride conductance",~90 nM
same,inhibition of CFTR at higher concentrations,"human wildtype CFTR [1]; CPT-cAMP stimulation, higher concentrations",approximately 100%
same,potency with apigenin or IBMX as agonist compared to CPT-cAMP,human wildtype CFTR [1]; apigenin (100 μM) or IBMX (100 μM) as agonists,mildly reduced
same,inhibition of UTP-induced chloride currents,[2],little inhibition
same,Mean channel open time,human wildtype CFTR [3],did not significantly change
same,mean channel closed time,human wildtype CFTR [3],greatly increased
same,Channel open probability (Po),"human wildtype CFTR [3]; control 0.50±0.04, forskolin and IBMX, +80 mV",0.14±0.03
same,unitary conductance,human wildtype CFTR [3]; control 7 pS at +80 mV,did not change
same,reversibility of cyst inhibition,"[4]; 2.5 μM removed after 3 days, 8-Br-cAMP continued",reversible
same,effect on pre-formed cysts,"[4]; 5 μM added at day 3 of 8-Br-cAMP, over 1 and 2 days",reduction in cyst size
same,cysts at 2.5 and 5 μM,"[4]; 2.5 and 5 μM, 4 days in culture, 100 μM 8-Br-cAMP",near complete absence of cysts
same,effect on kidney growth,[4]; in culture medium,did not affect kidney growth
same,IC50,CFTR,< 1000 nM
